Measured values from paper PMC10038264, “A new family of glutamate-gated chloride channels in parasitic sea louse Caligus rogercresseyi: A subunit refractory to activation by ivermectin is dominant in heteromeric assemblies” (PLOS Pathogens, 2023).

Tested on: coexpressed CrGluCl-D:CrGluCl-C
Experiment: Voltage-clamp of oocytes coinjected with CrGluCl-D and CrGluCl-C
Format: cell-based, Caligus rogercresseyi
Conditions: D:C ratio 1:1
Experimental: Adult female Xenopus laevis frogs were anaesthetized by immersion in a1g/L solution tricaine (Ethyl 3-aminobenzoate methanesulfonate, Sigma) buffered to pH 7 with NaHCO3. Surgery was performed 30–40 min later, once the frog was completely anaesthetized judging by loss of reflexes. Ovarian lobes were removed through 1 cm abdominal incision and then kept at 16°C in Barth’s modified solution containing (in mM): 88 NaCl, 1 KCl, 0.4 CaCl2, 0.3 Ca (NO3)2, 0.8 MgSO4, 2.4 NaHCO3, 5 Hepes, 2.5 sodium pyruvate, 100 μg/ml gentamicin sulfate, 100 U/ml penicillin, 100 μg/ml streptomycin, 250 μg/ml amphotericin B, 0.22μm filtered and adjusted to pH 7.5 with Tris-Base. Osmolarity was brought to 220 mOsm with saccharose. […]
Current measurements at controlled membrane potentials (voltage-clamp experiments) were performed using two intracellular microelectrodes in defolliculated Xenopus oocytes previously microinjected with 20 ng of cRNA. […] The oocytes were recorded in a chamber (Model RC-1Z, Warner Instrumenst, USA) under continuous superfusion. […] Currents were recorded continuously during the experiments without interruptions for solution changes. […] The signal filtered at 1 kHz was acquired with a Digidata 1440A Analog-to-Digital Converter and analyzed with Axon pClamp 10.6 software. […]

## ivermectin
  Iver response to activation: Sensitive
